Measurements taken from the supplement of paper PMC8617591.

Experiments:
[1] = tested on: Mycobacterium tuberculosis Erdman (autoluminescent); assay: total FIC90 (Loewe) at 90% inhibition, three-drug combination (log2); higher = more antagonistic
Procedure: (§1)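 DiaMOND equipotent three-drug combination dose responses (10 doses, 1.5- or 2-fold spacing, centred on IC90) against autoluminescent M. tuberculosis Erdman in 8 in vitro models. Read-out is OD600, or luminescence for the intracellular and dormancy models, normalised to untreated wells. Hill-fit Einf, AUC25 and GRinf are potency metrics; FIC50 and FIC90 are total Loewe fractional inhibitory concentrations as log2 (negative = synergy).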

[2] = tested on: Mycobacterium tuberculosis Erdman (autoluminescent); assay: Einf, fitted maximum growth inhibition of three-drug combination (fraction); higher = stronger maximal inhibition
Procedure: as §1

[3] = tested on: Mycobacterium tuberculosis Erdman (autoluminescent); assay: total FIC50 (Loewe) at 50% inhibition, three-drug combination (log2); higher = more antagonistic
Procedure: as §1

[4] = tested on: Mycobacterium tuberculosis Erdman (autoluminescent); assay: GRinf, maximum normalised growth rate inhibition (three-drug combination) (unitless (-1 to 1)); higher = less effect (negative = killing)
Procedure: as §1

[5] = tested on: Mycobacterium tuberculosis Erdman (autoluminescent); assay: AUC25, normalised area under dose response up to IC25 (three-drug combination) (fraction (0-1)); higher = more potent at low dose
Procedure: as §1

CC(C)/N=c1\cc2n(-c3ccc(Cl)cc3)c3ccccc3nc-2cc1Nc1ccc(Cl)cc1 [clofazimine] + O=[N+]([O-])c1cn2c(n1)OC[C@@H](OCc1ccc(OC(F)(F)F)cc1)C2 [pretomanid] + NC(=O)c1cnccn1 [pyrazinamide]
Conditions	AUC25, [5]	Einf, [2]	GRinf, [4]	total FIC50, [3]	total FIC90, [1]
in vitro model: acidic pH 5.7, time point: constant (~7 days, model-specific)	0.116	0.799	-0.189	-0.0503	–
in vitro model: acidic pH 5.7, time point: terminal (~4-5 doublings, model-specific)	0.0855	0.963	-0.286	-0.211	-0.383
in vitro model: intracellular J774, time point: constant = terminal	–	1	-0.589	–	0.069

Conditions	AUC25, [5]	Einf, [2]	GRinf, [4]	total FIC50, [3]	total FIC90, [1]
in vitro model: butyrate, time point: constant (~7 days, model-specific)	0.117	0.927	-0.101	-0.205	1.93
in vitro model: butyrate, time point: terminal (~4-5 doublings, model-specific)	0.0918	0.967	-0.0731	-0.348	0.119
in vitro model: cholesterol 0.05 mM, time point: constant (~7 days, model-specific)	0.136	0.671	-0.153	–	–
in vitro model: cholesterol 0.05 mM, time point: terminal (~4-5 doublings, model-specific)	0.108	0.917	-0.206	1.04	–
in vitro model: cholesterol-high 0.2 mM, time point: constant (~7 days, model-specific)	0.0983	0.866	-0.131	0.247	–
in vitro model: cholesterol-high 0.2 mM, time point: terminal (~4-5 doublings, model-specific)	0.0869	0.997	-0.572	0.565	0.223
in vitro model: dormancy (butyrate + nitrate, low O2), time point: constant (~7 days, model-specific)	0.0942	0.933	0.139	-1.02	-2
in vitro model: dormancy (butyrate + nitrate, low O2), time point: terminal (~4-5 doublings, model-specific)	0.0486	0.989	-0.2	-0.553	-0.326
in vitro model: standard 7H9 glycerol, time point: constant = terminal	0.128	0.947	-0.335	-0.2	–
in vitro model: valerate, time point: constant (~7 days, model-specific)	0.125	0.874	-0.0963	0.359	–
in vitro model: valerate, time point: terminal (~4-5 doublings, model-specific)	0.0562	0.928	0.0185	0.629	1.17

CC[C@@H](CO)NCCN[C@@H](CC)CO [ethambutol] + CC(=O)NC[C@H]1CN(c2ccc(N3CCOCC3)c(F)c2)C(=O)O1 [linezolid] + CO[C@H]1/C=C/O[C@@]2(C)Oc3c(C)c(O)c4c(O)c(c(/C=N/N5CCN(C6CCCC6)CC5)c(O)c4c3C2=O)NC(=O)/C(C)=C\C=C\[C@H](C)[C@H](O)[C@@H](C)[C@@H](O)[C@@H](C)[C@H](OC(C)=O)[C@@H]1C [rifapentine]
Conditions	AUC25, [5]	Einf, [2]	GRinf, [4]	total FIC50, [3]	total FIC90, [1]
in vitro model: acidic pH 5.7, time point: constant (~7 days, model-specific)	0.0936	0.872	-0.0867	0.452	–
in vitro model: acidic pH 5.7, time point: terminal (~4-5 doublings, model-specific)	0.0542	0.967	-0.0664	1.01	0.595
in vitro model: intracellular J774, time point: constant = terminal	–	0.962	-0.261	–	-1.64

Conditions	AUC25, [5]	Einf, [2]	GRinf, [4]	total FIC50, [3]	total FIC90, [1]
in vitro model: butyrate, time point: constant (~7 days, model-specific)	0.0551	0.886	0.0937	0.371	–
in vitro model: butyrate, time point: terminal (~4-5 doublings, model-specific)	0.0436	0.94	0.0645	0.251	-0.559
in vitro model: cholesterol 0.05 mM, time point: constant (~7 days, model-specific)	0.146	0.726	-0.109	-0.662	–
in vitro model: cholesterol 0.05 mM, time point: terminal (~4-5 doublings, model-specific)	0.154	0.936	-0.279	-1.58	–
in vitro model: cholesterol-high 0.2 mM, time point: constant (~7 days, model-specific)	0.102	0.996	-0.732	0.505	–
in vitro model: cholesterol-high 0.2 mM, time point: terminal (~4-5 doublings, model-specific)	0.103	1	-0.843	0.495	1.02
in vitro model: dormancy (butyrate + nitrate, low O2), time point: constant (~7 days, model-specific)	0.124	0.869	0.279	0.075	–
in vitro model: dormancy (butyrate + nitrate, low O2), time point: terminal (~4-5 doublings, model-specific)	0.131	0.996	-0.349	-0.164	1.09
in vitro model: standard 7H9 glycerol, time point: constant = terminal	0.0503	0.887	0.155	0.486	–
in vitro model: valerate, time point: constant (~7 days, model-specific)	0.0575	0.828	0.0988	0.319	–
in vitro model: valerate, time point: terminal (~4-5 doublings, model-specific)	0.0307	0.917	0.0733	0.429	–

CC[C@@H](CO)NCCN[C@@H](CC)CO [ethambutol] + CC(=O)NC[C@H]1CN(c2ccc(N3CCOCC3)c(F)c2)C(=O)O1 [linezolid] + CO[C@H]1/C=C/O[C@@]2(C)Oc3c(C)c(O)c4c(O)c(c(/C=N/N5CCN(C)CC5)c(O)c4c3C2=O)NC(=O)/C(C)=C\C=C\[C@H](C)[C@H](O)[C@@H](C)[C@@H](O)[C@@H](C)[C@H](OC(C)=O)[C@@H]1C [rifampicin]
Conditions	AUC25, [5]	Einf, [2]	GRinf, [4]	total FIC50, [3]	total FIC90, [1]
in vitro model: acidic pH 5.7, time point: constant (~7 days, model-specific)	0.107	0.895	-0.171	0.267	–
in vitro model: acidic pH 5.7, time point: terminal (~4-5 doublings, model-specific)	0.0468	0.972	-0.121	0.894	0.219
in vitro model: intracellular J774, time point: constant = terminal	–	0.96	-0.326	–	-2.16

Conditions	AUC25, [5]	Einf, [2]	GRinf, [4]	total FIC50, [3]	total FIC90, [1]
in vitro model: butyrate, time point: constant (~7 days, model-specific)	0.0696	0.907	0.0409	0.215	–
in vitro model: butyrate, time point: terminal (~4-5 doublings, model-specific)	0.0538	0.952	0.0366	0.088	-0.801
in vitro model: cholesterol 0.05 mM, time point: constant (~7 days, model-specific)	0.163	0.704	-0.271	-0.838	–
in vitro model: cholesterol 0.05 mM, time point: terminal (~4-5 doublings, model-specific)	0.142	0.945	-0.414	-1.2	–
in vitro model: cholesterol-high 0.2 mM, time point: constant (~7 days, model-specific)	0.0878	0.971	-0.549	0.326	–
in vitro model: cholesterol-high 0.2 mM, time point: terminal (~4-5 doublings, model-specific)	0.0943	1	-0.743	0.388	0.577
in vitro model: dormancy (butyrate + nitrate, low O2), time point: constant (~7 days, model-specific)	0.086	0.805	0.521	0.204	–
in vitro model: dormancy (butyrate + nitrate, low O2), time point: terminal (~4-5 doublings, model-specific)	0.0341	0.979	-0.0529	0.514	-0.712
in vitro model: standard 7H9 glycerol, time point: constant = terminal	0.0613	0.9	0.107	0.293	–
in vitro model: valerate, time point: constant (~7 days, model-specific)	0.0592	0.858	0.0331	0.437	–
in vitro model: valerate, time point: terminal (~4-5 doublings, model-specific)	0.0352	0.921	0.0654	0.622	-0.279
